Experimental findings from patent publication US9029414B2, “Triterpenoid compounds and methods of use thereof” (Biotechnology Research Corporation, priority 2008, dated 2015) are described below.

The target in assay [1] is T1, human MC4 receptor (Homo sapiens, UniProt P32245). The assay can be described thus: Radioligand competition binding assay, MC4. On the procedure: (§1) DA001 was evaluated against 109 receptor binding assays and 17 enzyme assays, comprising of selective, central and peripheral therapeutically-relevant targets. Radioligand competition assays were conducted whereby DA001 was tested at one concentration (10 μM) in duplicate. […] It could compete with the radioligand [^125I-NDP-alpha-melanocyte-stimulating hormone (α-MSH)] binding for MC1 and MC4 but not MC3 and MC5 nor the related family, the melanin concentrating hormone receptors (MCH1 and MCH2).
T1 sequence (P32245 whole entry): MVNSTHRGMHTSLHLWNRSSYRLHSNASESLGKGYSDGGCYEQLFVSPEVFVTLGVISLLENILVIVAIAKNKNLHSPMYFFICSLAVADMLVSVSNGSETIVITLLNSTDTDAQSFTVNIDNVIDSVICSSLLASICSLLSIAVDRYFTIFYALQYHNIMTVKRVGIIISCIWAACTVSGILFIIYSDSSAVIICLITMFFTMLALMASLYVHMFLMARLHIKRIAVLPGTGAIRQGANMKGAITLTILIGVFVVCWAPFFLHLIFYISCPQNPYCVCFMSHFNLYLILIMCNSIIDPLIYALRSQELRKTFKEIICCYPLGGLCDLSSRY
To determine the IC50 for DA001 to inhibit α-MSH binding on MC1 and MC4 receptor, the compound was further characterized by a dose-dependent study. DA001 was evaluated with 8 concentrations on MC1 and MC4 receptor binding assays.
The specific ligand binding to the receptors is defined as the difference between the total binding and the nonspecific binding determined in the presence of an excess of unlabelled ligand. The results are expressed as a percent of control specific binding [(measured specific binding/control specific binding)×100] and as a percent inhibition of control specific binding {100−[(measured specific binding/control specific binding)×100]} obtained in the presence of DA001. The IC50 values (concentration causing a half-maximal inhibition of control specific binding) and Hill coefficients (nH) were determined by non-linear regression analysis of the competition curves generated with mean replicate values using Hill equation curve fitting (Y=D+[(A−D)/(1+(C/C50)nH)], where Y=specific binding, D=minimum specific binding, A=maximum specific binding, C=compound concentration, C50=IC50, and nH=slope factor). This analysis was performed using a software developed at Cerep (Hill software) and validated by comparison with data generated by the commercial software SigmaPlot® 4.0 for Windows® (© 1997 by SPSS Inc.).

Another assay has as its system kainate receptor. The assay is described as follows: Radioligand competition binding assay, kainate. Particulars: 10 μM in duplicate. On the procedure:
as §1
(In general: In a radioligand displacement assay an active substance lowers the binding of a labelled ligand.)

The target in the next assay is human MC1 receptor (Homo sapiens, UniProt Q01726). The assay is described as follows: Cellular receptor functional assay (cAMP), MC1. The format is cell-based. On the procedure:
(§2) DA001 inhibits ligand binding to MC1 and MC4 receptors. To determine whether the inhibitory effect is due to agonist or antagonist activity, DA001 was evaluated at 6 or 8 concentrations in cellular assays assessing receptor function. Upon ligand binding, the MC1 or MC4 receptor is activated which leads to an increase in intracellular cyclic AMP. […] DA001 alone is unable to induce cAMP increase (blue square dots). […] DA001 was further evaluated with MC2 receptor functional assay. Upon ligand binding, the MC2 receptor is activated which leads to an increase in intracellular cyclic AMP.

For assay [2], the target named is T1, human MC4 receptor. The assay can be described thus: Cellular receptor functional assay (cAMP), MC4. The format is cell-based. Particulars: cells over-expressing MC4. As to the method:
FIG. 1. […] DA001 alone is unable to induce cAMP increase (blue square dots).
as §2

Assay [3] deals with C/EBP-b and c-fos expression in cortical neurons. The assay is described as follows: C/EBP-b and c-fos mRNA (real-time PCR) in cortical neurons. The format is cell-based. Particulars: vs DMSO. As to the method:
FIG. 4. DA001 induces CEBPb mRNA in cortical neurons. Cortical neurons were incubated with DA001 or the DMSO control for 3 different time intervals. Gene expression was normalized against the house-keeping gene, hypoxanthine phosphoribosyltransferase 1 (HPRT1) and glyceraldehyde 3-phosphate dehydrogenase (GAPDH) and compared to the control (DMSO) treatment. Relative change in gene expression induced by DA001 was compared with DMSO. Asterisk represents P<0.05.
Cortical neurons of 11 DIV-12 DIV were pre-incubated with DA001 or DMSO for 24 hours. Cells were washed in Locke's medium without magnesium for 15 min, followed by the treatment of NMDA (20 μM) or water for 20 min. Neurons were incubated with normal growth medium and total RNA were extracted at different time intervals after or without NMDA treatment. Total RNA was extracted using RNeasy Mini kit (Qiagen) according to the manufacturer's protocol, and was reverse-transcribed into single-stranded cDNA with SuperScript II Reverse Transcriptase (Invitrogen) and oligo-dT primers. Real-time Quantitative PCR was performed using Power SYBR Green PCR Master Mix (Applied Biosystems) on the Mx3000P Real-Time PCR System (Stratagene). […]
Cortical neurons were treated with DA001 at different time intervals. The expression of CCAAT/enhancer binding protein beta (C/EBP-b) and c-fos was measured at three different time intervals by real-time PCR. […]
For orientation: Real-time PCR tracks product formation cycle by cycle.

Another assay has as its system ischemic rats. The assay can be described thus: MCAO (middle carotid artery occlusion) transient focal ischemia model. The format is in vivo. On the procedure:
The MCAO (middle carotid artery occlusion model) was performed to investigate the protective effects of DA001 on the brain when the brain was exposed to transient focal ischemia (or lack of oxygen) such as during a stroke. Hemispheric brain swelling and infarct volume (the area of dead tissue caused by inadequate blood supply) was measured for test subjects treated with the compound 6 hours after ischemia and compared to that of the control group.
The MCAO (middle carotid artery occlusion model) was performed to investigate the protective effects of DA001 on the brain when exposed to transient focal ischemia (or lack of oxygen) such as during a stroke. Neurological scores, hemispheric brain swelling and infarct volume (the area of dead tissue caused by inadequate blood supply) was measured in test subjects treated with the compound 6 hours after ischemia and compared to that of the control group. DA001 effectively attenuated neurological deficits, reduced infarct volume (the area of dead tissue caused by inadequate blood supply), especially in brain slices number 3 to 5, and the extent of edema during ischemic conditions as shown in FIG. 2.

The target of another assay is EP3 receptor (Homo sapiens, UniProt P43115). The assay can be described thus: Radioligand competition binding assay, EP3. Particulars: EP3, target PGE2; compound at 10 μM in duplicate; read-out: % inhibition of control specific binding. As to the method:
To determine the targets of DA compounds, the compound was assessed in binding assays for the family of prostanoid receptors. Both compounds were tested at a single concentration (10 μM) in duplicate. DA001 and DA021 inhibit the ligand binding of prostaglandin E2 receptors EP1, EP2 and EP4 and moderately to prostaglandin (PGF) to its receptor (FP), but not prostaglandin I (PGI2), thromoboxane A and prostaglandin D2 to their receptors.

human MC1 receptor, sequence (Q01726 whole entry): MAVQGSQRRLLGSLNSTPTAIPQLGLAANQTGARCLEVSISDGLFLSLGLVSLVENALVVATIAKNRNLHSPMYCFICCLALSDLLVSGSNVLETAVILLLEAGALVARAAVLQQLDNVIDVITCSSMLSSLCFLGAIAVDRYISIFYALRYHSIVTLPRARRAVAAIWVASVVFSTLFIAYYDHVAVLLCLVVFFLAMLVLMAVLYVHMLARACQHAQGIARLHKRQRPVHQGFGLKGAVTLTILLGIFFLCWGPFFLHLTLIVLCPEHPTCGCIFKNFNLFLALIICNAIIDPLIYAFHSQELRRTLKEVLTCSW
EP3 receptor, sequence (P43115 whole entry): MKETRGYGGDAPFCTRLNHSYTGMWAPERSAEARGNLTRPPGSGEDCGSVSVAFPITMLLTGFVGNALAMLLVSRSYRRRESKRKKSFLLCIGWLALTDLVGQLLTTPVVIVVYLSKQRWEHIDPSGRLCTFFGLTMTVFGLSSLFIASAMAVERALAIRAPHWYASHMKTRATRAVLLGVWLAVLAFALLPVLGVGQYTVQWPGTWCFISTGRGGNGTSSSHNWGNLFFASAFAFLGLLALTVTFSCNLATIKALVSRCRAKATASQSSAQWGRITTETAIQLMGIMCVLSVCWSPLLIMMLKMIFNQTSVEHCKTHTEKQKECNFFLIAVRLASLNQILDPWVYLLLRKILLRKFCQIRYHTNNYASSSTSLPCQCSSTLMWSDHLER

For `C=C(C)[C@@H]1CC[C@]2(C(=O)O)CC[C@]3(C)C(CC[C@@H]4[C@@]5(C)CC[C@H](O[C@@H]6OC[C@H](O)[C@H](O)[C@H]6O[C@@H]6O[C@@H](C)[C@H](O)[C@@H](O)[C@H]6O)[C@@](C)(CO)[C@@H]5CC[C@]43C)[C@@H]12` (stereo partly drawn) [DA001, 3-O-[α-L-rhamnopyranosyl-(1→2)-α-L-arabinopyranosyl]-3,23-dihydroxy-20(29)-lupen-28-oic acid], the Ki at human MC4 receptor [1] worked out at 6.3 µM. Moreover, the IC50 on human MC4 receptor [1] (8 concentrations) was 6.8 µM; at human MC1 receptor (inhibition of cAMP increase by NDP-α-MSH, cells over-expressing MC1, read-out: IC50, antagonist effect), 50 µM; on human MC4 receptor [2] (inhibition of cAMP increase by NDP-α-MSH, read-out: IC50, antagonist effect) it was 17 µM. The nH on human MC4 receptor [1] (Hill coefficient) was determined as 1.3. The “% inhibition of control specific binding” value in the assay on kainate receptor is given as 35%. The same compound returned a Kb on human MC1 receptor (antagonist effect at human MC1 receptor) of 5.3 µM. Moreover, the “agonist effect (cAMP increase by compound alone)” value at human MC4 receptor [2] (compound alone) is on record as “did not induce an increase in cAMP”. For the same compound, the “C/EBP-b expression (mRNA)” value in assay [3] (after a 2-day treatment) is on record as “induced C/EBP-b expression”. For the same compound, the “c-fos expression (mRNA)” value in assay [3] (similar conditions) is “did not affect expression of c-fos”. Also, the “total infarction of MCAO rats” value in the assay on ischemic rats (12.6 mg/kg and 25.2 mg/kg orally 6 h post-ischemia) is “significantly decreased”. Also, the extent of edema result with ischemic rats (42 mg/kg) was “reduced the extent of edema”. Besides, the “neurological scores of ischemic rats” value in the assay with ischemic rats (12.6 and 25.2 mg/kg orally 6 h post-ischemia) is recorded as “significantly improved”.
Consider `C=C(C)[C@@H]1CC[C@]2(/C=N/O)CC[C@]3(C)C(CCC4[C@@]5(C)CCC(=O)[C@@](C)(CO)[C@@H]5CC[C@]43C)C12` (some centres unmarked) [DA021], for which the inhibition at 10 µM on EP3 receptor is -3%.

Usually Ki stands for the equilibrium dissociation constant of an inhibitor or competing ligand from its target. For orientation: IC50 means the concentration that inhibits the measured activity by half. One may read the Kb as the equilibrium dissociation constant of an antagonist, usually derived from a functional assay. A low value points to a more potent antagonist. In general, inhibition refers to the change of the read-out against control, counted positive when it falls.
